System: human (tumor) Hif2α (EPAS1) mRNA
Experiment: Hif2α knockdown in orthotopic RCC tumor bearing mice, single injection of RNAi trigger-delivery polymer conjugate, RT-qPCR (Table 7)
Format: in vivo
Details: RNAi trigger 50 μg, polymer 064 125 μg; single tail vein injection; relative to isotonic glucose
In short: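 A single intravenous dose of Hif2α RNAi trigger–delivery polymer conjugate, or isotonic glucose vehicle, was given to nude mice with subcapsular A498-SEAP renal tumours (about 5–6 weeks old). At the indicated time, tumour RNA was assayed by biplex TaqMan qPCR against CycA, and relative expression was calculated by ΔΔCT versus vehicle.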

Substance	Relative Expression day 4 (Hif2α mRNA in kidney tumor)
AD03190 (antisense AGUAAAACAAUUGUGUACUUUAA; sense AAAGUACACAAUUGUUUUACT; Hif2alpha RNAi agent antisense strand; modified_base 2,4,6,8,10,14,16,18 /mod_base = “2′-deoxy-2′-fluoro corresponding nucleoside”; modified_base 1,3,5,7,9,11,12,13,15,17,19,20,21,22,23 /mod_base = “2′-O-methyl corresponding nucleoside”; modified_base 2,3,22,23 /mod_base = “5′-phosphorothioate corresponding nucleotide”; Hif2alpha RNAi agent sense strand; modified_base 3,5,7,9,10,11,13,15,19 /mod_base = “2′-deoxy-2′-fluoro corresponding nucleoside”; modified_base 1,2,4,6,8,12,14,16,17,18,20 /mod_base = “2′-O-methyl corresponding nucleoside”; modified_base 21 /mod_base = “3′-3′-linked nucleoti)	0.269
AD03191 (antisense AGUAAAACAAUUGUGUACUUUAA; sense AAAGUACACAAUUGUUUUACT; Hif2alpha RNAi agent antisense strand; modified_base 2,4,6,8,10,14,16,18 /mod_base = “2′-deoxy-2′-fluoro corresponding nucleoside”; modified_base 1,3,5,7,9,11,12,13,15,17,19,20,21,22,23 /mod_base = “2′-O-methyl corresponding nucleoside”; modified_base 2,3,22,23 /mod_base = “5′-phosphorothioate corresponding nucleotide”; Hif2alpha RNAi agent sense strand; modified_base 7,9,10,11 /mod_base = “2′-deoxy-2′-fluoro corresponding nucleoside”; modified_base 1,2,3,4,5,6,8,12,13,14,15,16,17,18,19,20 /mod_base = “2′-O-methyl corresponding nucleoside”; modified_base 21 /mod_base = “3′-3′-linked nucleoti)	0.307
AD03192 (antisense AGUAAAACAAUUGUGUACUUUAA; sense AAAGUACACAAUUGUUUUACT; Hif2alpha RNAi agent antisense strand; modified_base 2,4,6,8,10,14,18 /mod_base = “2′-deoxy-2′-fluoro corresponding nucleoside”; modified_base 1,3,5,7,9,11,12,13,15,16,17,19,20,21,22,23 /mod_base = “2′-O-methyl corresponding nucleoside”; modified_base 2,3,22,23 /mod_base = “5′-phosphorothioate corresponding nucleotide”; Hif2alpha RNAi agent sense strand; modified_base 5,7,9,10,11,13,15 /mod_base = “2′-deoxy-2′-fluoro corresponding nucleoside”; modified_base 1,2,3,4,6,8,12,14,16,17,18,19,20 /mod_base = “2′-O-methyl corresponding nucleoside”; modified_base 21 /mod_base = “3′-3′-linked nucleoti)	0.286
AD03193 (antisense AGUAAAACAAUUGUGUACUUUAA; sense AAAGUACACAAUUGUUUUACT; Hif2alpha RNAi agent antisense strand; modified_base 2,4,6,8,14 /mod_base = “2′-deoxy-2′-fluoro corresponding nucleoside”; modified_base 1,3,5,7,9,10,11,12,13,15,16,17,18,19,20,21,22,23 /mod_base = “2′-O-methyl corresponding nucleoside”; modified_base 2,3,22,23 /mod_base = “5′-phosphorothioate corresponding nucleotide”; Hif2alpha RNAi agent sense strand; modified_base 9,10,11 /mod_base = “2′-deoxy-2′-fluoro corresponding nucleoside”; modified_base 1,2,3,4,5,6,7,8,12,13,14,15,16,17,18,19,20 /mod_base = “2′-O-methyl corresponding nucleoside”; modified_base 21 /mod_base = “3′-3′-linked nucleoti)	0.275
AD03253 (antisense UUUCAUGAAAUCGUUACGUUG; sense ACGUAACGAUUUCAUGAAAT; Hif2alpha RNAi agent antisense strand; modified_base 2,4,6,8,14 /mod_base = “2′-deoxy-2′-fluoro corresponding nucleoside”; modified_base 1,3,5,7,9,10,11,12,13,15,16,17,18,19,20,21 /mod_base = “2′-O-methyl corresponding nucleoside”; modified_base 2,3,20,21 /mod_base = “5′-phosphorothioate corresponding nucleotide”; Hif2alpha RNAi agent sense strand; modified_base 7,8,9 /mod_base = “2′-deoxy-2′-fluoro corresponding nucleoside”; modified_base 1,2,3,4,5,6,10,11,12,13,14,15,16,17,18,19 /mod_base = “2′-O-methyl corresponding nucleoside”; modified_base 20 /mod_base = “3′-3′-linked nucleotide”; modi)	0.188
AD03254 (antisense AUUCAUGAAAUCGUUACGUUG; sense ACGUAACGAUUUCAUGAAUT; Hif2alpha RNAi agent antisense strand; modified_base 2,4,6,8,14 /mod_base = “2′-deoxy-2′-fluoro corresponding nucleoside”; modified_base 1,3,5,7,9,10,11,12,13,15,16,17,18,19,20,21 /mod_base = “2′-O-methyl corresponding nucleoside”; modified_base 2,3,20,21 /mod_base = “5′-phosphorothioate corresponding nucleotide”; Hif2alpha RNAi agent sense strand; modified_base 7,8,9 /mod_base = “2′-deoxy-2′-fluoro corresponding nucleoside”; modified_base 1,2,3,4,5,6,10,11,12,13,14,15,16,17,18,19 /mod_base = “2′-O-methyl corresponding nucleoside”; modified_base 20 /mod_base = “3′-3′-linked nucleotide”; modi)	0.295
AD03255 (antisense UUUCAUGAAAUCGUUACGUUGAT; sense AACGUAACGAUUUCAUGAAAT; Hif2alpha RNAi agent antisense strand; modified_base 2,4,6,8,14 /mod_base = “2′-deoxy-2′-fluoro corresponding nucleoside”; modified_base 1,3,5,7,9,10,11,12,13,15,16,17,18,19,20,21,22 /mod_base = “2′-O-methyl corresponding nucleoside”; modified_base 23 /mod_base = “3′-3′-linked nucleotide”; modified_base 2,3,22,23 /mod_base = “5′-phosphorothioate corresponding nucleotide”; Hif2alpha RNAi agent sense strand; modified_base 8,9,10 /mod_base = “2′-deoxy-2′-fluoro corresponding nucleoside”; modified_base 1,2,3,4,5,6,7,11,12,13,14,15,16,17,18,19,20 /mod_base = “2′-O-methyl corresponding nucleoside”)	0.264
AD03256 (antisense AUUCAUGAAAUCGUUACGUUGAT; sense AACGUAACGAUUUCAUGAAUT; Hif2alpha RNAi agent antisense strand; modified_base 2,4,6,8,14 /mod_base = “2′-deoxy-2′-fluoro corresponding nucleoside”; modified_base 1,3,5,7,9,10,11,12,13,15,16,17,18,19,20,21,22 /mod_base = “2′-O-methyl corresponding nucleoside”; modified_base 23 /mod_base = “3′-3′-linked nucleotide”; modified_base 2,3,22,23 /mod_base = “5′-phosphorothioate corresponding nucleotide”; Hif2alpha RNAi agent sense strand; modified_base 8,9,10 /mod_base = “2′-deoxy-2′-fluoro corresponding nucleoside”; modified_base 1,2,3,4,5,6,7,11,12,13,14,15,16,17,18,19,20 /mod_base = “2′-O-methyl corresponding nucleoside”)	0.333
AD03257 (antisense UUUCAUGAAAUCGUUACGUUG; sense ACGUAACGAUUUCAUGAAAT; Hif2alpha RNAi agent antisense strand; modified_base 2,8,10,14 /mod_base = “2′-deoxy-2′-fluoro corresponding nucleoside”; modified_base 1,3,4,5,6,7,9,11,12,13,15,16,17,18,19,20,21 /mod_base = “2′-O-methyl corresponding nucleoside”; modified_base 2,3,20,21 /mod_base = “5′-phosphorothioate corresponding nucleotide”; Hif2alpha RNAi agent sense strand; modified_base 7,8,9 /mod_base = “2′-deoxy-2′-fluoro corresponding nucleoside”; modified_base 1,2,3,4,5,6,10,11,12,13,14,15,16,17,18,19 /mod_base = “2′-O-methyl corresponding nucleoside”; modified_base 20 /mod_base = “3′-3′-linked nucleotide”; modi)	0.203

From patent publication US9976141B2, “Compositions and methods for inhibiting gene expression of Hif2alpha” (Arrowhead Madison Inc., priority 2015, dated 2018)
